Values belong to the compound of their own block, whether it stands above or below them.
Tests used:
[1] = Chemical stability of free acid and salts during salt preparation; format: physicochemical
[2] = 12-month stability test, HPLC; format: physicochemical; parameters: HPLC result, RRT 1.09: unit not given beside the values; settings: for HPLC result, RRT 0.86 / HPLC result, RRT 0.94 / HPLC result, RRT 1 / HPLC result, RRT 1.05 / HPLC result, RRT 1.09 / HPLC result, RRT 1.15 / HPLC result, RRT 1.27 / HPLC result, RRT 1.29 / HPLC result, RRT 1.65: 2-8° C.

stability of the salt [1]: unstable
Compound: Nc1cc(Cl)nc(C(=O)[O-])c1Cl.[K+] [potassium salt]

Compound: (R)-5-(4-chlorophenyl)-1-isopropyl-2-methyl-4-(3-(4-(4-((4-((1-(phenylthio)-4-(4-((phosphonooxy)methyl)piperidin-1-yl)butan-2-yl)amino)-3-((trifluoromethyl)sulfonyl)phenyl)sulfonamido)phenyl)piperazin-1-yl)phenyl)-1H-pyrrole-3-carboxylic acid meglumine salt
HPLC result, RRT 0.86 ([2]; 1 month): 0.05 | HPLC result, RRT 0.94 ([2]; 1 month): 0.07 | HPLC result, RRT 1 ([2]; 1 month): 99.4 | HPLC result, RRT 1.05 ([2]; 1 month): <0.05 | HPLC result, RRT 1.09 ([2]; 1 month): 0.07 | HPLC result, RRT 1.15 ([2]; 1 month): <0.05 | HPLC result, RRT 1.27 ([2]; 1 month): <0.05 | HPLC result, RRT 1.29 ([2]; 1 month): 0.38 | HPLC result, RRT 0.86 ([2]; 2 months): 0.05 | HPLC result, RRT 0.94 ([2]; 2 months): 0.07 | HPLC result, RRT 1 ([2]; 2 months): 99.4 | HPLC result, RRT 1.05 ([2]; 2 months): <0.05 | HPLC result, RRT 1.09 ([2]; 2 months): 0.08 | HPLC result, RRT 1.15 ([2]; 2 months): <0.05 | HPLC result, RRT 1.27 ([2]; 2 months): <0.05 | HPLC result, RRT 1.29 ([2]; 2 months): 0.40 | HPLC result, RRT 0.86 ([2]; 2 weeks): <0.05 | HPLC result, RRT 0.94 ([2]; 2 weeks): 0.07 | HPLC result, RRT 1 ([2]; 2 weeks): 99.4 | HPLC result, RRT 1.05 ([2]; 2 weeks): <0.05 | HPLC result, RRT 1.09 ([2]; 2 weeks): 0.07 | HPLC result, RRT 1.15 ([2]; 2 weeks): <0.05 | HPLC result, RRT 1.27 ([2]; 2 weeks): <0.05 | HPLC result, RRT 1.29 ([2]; 2 weeks): 0.38 | HPLC result, RRT 1.65 ([2]; 2 weeks): <0.05 | HPLC result, RRT 0.86 ([2]; 3 months): 0.09 | HPLC result, RRT 0.94 ([2]; 3 months): <0.05 | HPLC result, RRT 1 ([2]; 3 months): 99.5 | HPLC result, RRT 1.05 ([2]; 3 months): <0.05 | HPLC result, RRT 1.09 ([2]; 3 months): 0.08 | HPLC result, RRT 1.15 ([2]; 3 months): <0.05 | HPLC result, RRT 1.27 ([2]; 3 months): <0.05 | HPLC result, RRT 1.29 ([2]; 3 months): 0.36 | HPLC result, RRT 1.65 ([2]; 3 months): <0.05 | HPLC result, RRT 0.86 ([2]; 6 months): 0.05 | HPLC result, RRT 0.94 ([2]; 6 months): 0.06 | HPLC result, RRT 1 ([2]; 6 months): 99.3 | HPLC result, RRT 1.05 ([2]; 6 months): 0.05 | HPLC result, RRT 1.09 ([2]; 6 months): 0.06 | HPLC result, RRT 1.15 ([2]; 6 months): <0.05 | HPLC result, RRT 1.27 ([2]; 6 months): <0.05 | HPLC result, RRT 1.29 ([2]; 6 months): 0.44 | HPLC result, RRT 1.65 ([2]; 6 months): <0.05 | HPLC result, RRT 0.86 ([2]; 9 months): 0.08 | HPLC result, RRT 0.94 ([2]; 9 months): 0.06 | HPLC result, RRT 1 ([2]; 9 months): 99.2 | HPLC result, RRT 1.05 ([2]; 9 months): 0.07 | HPLC result, RRT 1.09 ([2]; 9 months): 0.09 | HPLC result, RRT 1.15 ([2]; 9 months): <0.05 | HPLC result, RRT 1.27 ([2]; 9 months): 0.1 | HPLC result, RRT 1.29 ([2]; 9 months): 0.41 | HPLC result, RRT 1.65 ([2]; 9 months): <0.05 | HPLC result, RRT 0.86 ([2]; 12 months): 0.08 | HPLC result, RRT 0.94 ([2]; 12 months): 0.06 | HPLC result, RRT 1 ([2]; 12 months): 99.4 | HPLC result, RRT 1.05 ([2]; 12 months): <0.05 | HPLC result, RRT 1.09 ([2]; 12 months): <0.05 | HPLC result, RRT 1.15 ([2]; 12 months): 0.07 | HPLC result, RRT 1.27 ([2]; 12 months): 0.09 | HPLC result, RRT 1.29 ([2]; 12 months): 0.14 | HPLC result, RRT 1.65 ([2]; 12 months): 0.18 | HPLC result, RRT 0.86 ([2]; T0): 0.06 | HPLC result, RRT 0.94 ([2]; T0): 0.07 | HPLC result, RRT 1 ([2]; T0): 99.6 | HPLC result, RRT 1.05 ([2]; T0): <0.05 | HPLC result, RRT 1.09 ([2]; T0): 0.06 | HPLC result, RRT 1.15 ([2]; T0): <0.05 | HPLC result, RRT 1.27 ([2]; T0): <0.05 | HPLC result, RRT 1.29 ([2]; T0): 0.22 | HPLC result, RRT 1.65 ([2]; T0): <0.05 | change in purity over test period (FIG. 20) ([2]; 12 month test period): little to no change | chemical stability ([1]; under experimental conditions): chemically stable
